Experiments:
Type in all cases: cell-based
IKZF1 in L363 cells = biological target: T1, IKZF1 in L363 cells (Homo sapiens, UniProt Q13422+Q96SW2); experiment: Degradation of IKZF1 in L363 cells (Western blot); settings: 1000 nM, 16 hours
T1 construct: endogenous in cells; host or cells: L363
Description: (§1) The 24-well cell culture plate was inoculated with 0.95 mL L363 cells (Nanjing Co-bioer) per well with a cell density of 6×10^5 cells/well. The cell plate was placed in a 5% carbon dioxide incubator and cultured at 37° C. for 8 hours, then 50 μL of compound solution was added. The final concentration of the compound was 1000 nM. After continuing to culture for 16 hours, the cells were collected into a 1.5 mL centrifuge tube and centrifuged at 3000 rpm and 4° C. for 5 minutes. Cell precipitation was cleaned twice with 1×DPBS, resuspended cells were lysed with 100 μL lysate (cell lysate was Western and IP cell lysate (Beyotime), supplemented with 1 mM mixture of phenylmethylsulfonyl fluoride and protease inhibitor (Beyotime)), left on ice for 30 minutes, then centrifuged at 14000 g at 4° C. for 10 minutes, and the supernatant was taken to detect IKZF1 and IKZF3 protein level by Western blot.
(§2) The total protein concentration in the supernatant of cell lysis was determined by BCA protein quantitative kit (Tiangen). According to the concentration of total protein detected by BCA, the supernatant was adjusted to 0.2 μg/μL with PBS and 5× SDS-PAGE protein loading buffer (Beyotime), bathed in water at 100° C. for 10 minutes, then placed in ice bath for 5 minutes, centrifuged at 14000 g and 4° C. for 5 minutes, and then collected as WB loading sample. Prefabricated glue (KeyGEN) was used for protein electrophoresis with a loading amount of 10 μL (total protein 2 μg). After Tris-MOPS-SDS electrophoresis solution (Adamas), 120V constant pressure electrophoresis was performed. After electrophoresis, the protein on the adhesive strip was transferred to PVDF membrane with a constant current of […] for 50 minutes. After the membrane was transferred, the membrane was incubated in 5% bovine serum albumin solution for 2 hours at room temperature. After blocking, PVDF membranes were incubated with IKZF1 primary antibody (CST) and IKZF3 primary antibody (Abcam) overnight at 4°, the membranes were washed with TBST buffer (2.4 g Tris, 8.8 g NaCl, 1.5 mL Tween 20, pH adjusted to 7.4, constant volume to IL) for 30 minutes, incubated with secondary antibody (Abcam) for 2 hours at room temperature, finally incubated with Clarity Western ECL Substrate(BIO-RAD) for 5 minutes for luminescence development, chemiluminescence imaging system (Clinx, chemiScope 6200 Touch) for development and protein mapping photography. The protein map was analyzed by Clinx chemiluminescence analysis software for grayscale values. Using the formula: grayscale correction value=(target protein grayscale value/corresponding internal reference grayscale value)×10^3, the grayscale correction value of each sample was calculated. The degradation rate was calculated by comparing with the grayscale correction value of the control group.

IKZF3 in L363 cells = biological target: T2, IKZF3 in L363 cells (Homo sapiens, UniProt Q96SW2+Q9UKT9); experiment: Degradation of IKZF3 in L363 cells (Western blot); settings: 1000 nM, 16 hours
T2 construct: endogenous in cells; host or cells: L363
T2 sequence (Q9UKT9 whole entry): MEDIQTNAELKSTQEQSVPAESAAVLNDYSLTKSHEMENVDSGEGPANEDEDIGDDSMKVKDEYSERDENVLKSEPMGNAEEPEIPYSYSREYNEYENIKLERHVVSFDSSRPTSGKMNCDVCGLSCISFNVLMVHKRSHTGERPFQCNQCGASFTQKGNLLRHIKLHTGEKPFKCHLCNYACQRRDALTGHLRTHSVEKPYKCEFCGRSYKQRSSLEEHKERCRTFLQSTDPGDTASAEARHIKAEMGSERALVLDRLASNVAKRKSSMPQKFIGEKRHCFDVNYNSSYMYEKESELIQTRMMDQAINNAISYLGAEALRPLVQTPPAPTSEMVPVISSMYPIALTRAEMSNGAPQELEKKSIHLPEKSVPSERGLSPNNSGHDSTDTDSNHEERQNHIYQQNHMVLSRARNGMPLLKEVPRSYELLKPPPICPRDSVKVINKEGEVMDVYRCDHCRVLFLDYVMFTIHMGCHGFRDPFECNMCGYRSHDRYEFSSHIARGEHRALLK
T2 sequence (Q96SW2 whole entry): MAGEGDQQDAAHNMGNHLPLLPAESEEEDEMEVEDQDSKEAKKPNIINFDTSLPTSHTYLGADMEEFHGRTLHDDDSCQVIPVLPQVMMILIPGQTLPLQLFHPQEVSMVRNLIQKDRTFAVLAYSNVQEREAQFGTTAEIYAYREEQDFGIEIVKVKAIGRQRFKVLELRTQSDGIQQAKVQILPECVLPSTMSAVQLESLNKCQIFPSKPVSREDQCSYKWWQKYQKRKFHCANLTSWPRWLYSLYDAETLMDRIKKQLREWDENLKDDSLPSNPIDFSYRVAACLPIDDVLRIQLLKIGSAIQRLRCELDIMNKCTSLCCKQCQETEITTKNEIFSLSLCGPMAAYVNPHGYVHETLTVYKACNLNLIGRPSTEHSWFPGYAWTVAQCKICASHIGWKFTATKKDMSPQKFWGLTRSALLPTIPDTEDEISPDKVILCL
T2 sequence (Q16531 whole entry partner): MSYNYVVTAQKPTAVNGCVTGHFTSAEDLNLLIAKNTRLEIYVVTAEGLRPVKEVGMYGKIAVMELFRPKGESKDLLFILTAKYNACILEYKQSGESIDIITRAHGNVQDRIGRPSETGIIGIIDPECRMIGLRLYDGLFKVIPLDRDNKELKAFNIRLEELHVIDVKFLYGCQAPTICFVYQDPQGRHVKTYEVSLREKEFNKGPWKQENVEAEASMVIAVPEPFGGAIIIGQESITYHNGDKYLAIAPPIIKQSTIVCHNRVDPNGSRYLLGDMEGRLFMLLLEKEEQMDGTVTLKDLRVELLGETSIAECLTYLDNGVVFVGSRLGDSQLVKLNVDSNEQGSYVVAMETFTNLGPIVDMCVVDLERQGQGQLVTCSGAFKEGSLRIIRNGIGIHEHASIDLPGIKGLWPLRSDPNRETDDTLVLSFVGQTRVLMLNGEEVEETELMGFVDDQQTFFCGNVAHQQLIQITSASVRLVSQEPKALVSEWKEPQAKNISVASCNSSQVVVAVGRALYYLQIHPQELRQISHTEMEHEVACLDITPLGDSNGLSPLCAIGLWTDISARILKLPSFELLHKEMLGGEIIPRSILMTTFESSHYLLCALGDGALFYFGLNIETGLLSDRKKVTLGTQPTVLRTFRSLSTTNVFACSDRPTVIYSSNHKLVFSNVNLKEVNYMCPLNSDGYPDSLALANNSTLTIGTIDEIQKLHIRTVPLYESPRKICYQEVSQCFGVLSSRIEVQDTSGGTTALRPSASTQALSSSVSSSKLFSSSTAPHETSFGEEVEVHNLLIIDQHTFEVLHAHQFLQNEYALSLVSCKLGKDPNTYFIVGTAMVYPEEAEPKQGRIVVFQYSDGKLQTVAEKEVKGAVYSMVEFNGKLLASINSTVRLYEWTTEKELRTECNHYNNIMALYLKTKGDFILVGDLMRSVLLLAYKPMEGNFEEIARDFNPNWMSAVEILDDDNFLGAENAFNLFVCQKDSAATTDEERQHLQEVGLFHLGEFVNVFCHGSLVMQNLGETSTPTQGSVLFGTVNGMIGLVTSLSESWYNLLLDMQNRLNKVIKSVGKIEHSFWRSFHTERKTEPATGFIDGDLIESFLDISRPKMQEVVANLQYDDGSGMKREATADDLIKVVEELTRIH
Description: as §1, §2

[1] = test system: Interleukin-6 (IL-6) in LPS-induced human PBMC; experiment: Cytokine secretion of LPS-induced human PBMC, IL-6 AlphaLISA detection; settings: inhibition of IL-6, compound 1 hour or 20 hours, then LPS 100 ng/mL 5 hours
Description: Frozen human PBMC (Milestone, PB010C) was resuspended to RPMI 1640 medium (Gibco, A1049101) after resuscitation, supplemented with 10% fetal bovine serum (Gibco, 10099141), 100 U/mL penicillin and 100 μg/mL streptomycin (Gibco, 15140122). On the same day, 150 μL of PBMC was spread in each well of a 96-well transparent cell plate (Labserv, 310109008), so that the cell density was 2×10^5 cells/well. Then 50 μL diluted compound solution was added to the corresponding cell-covered wells to make the final concentration of the compound in the range of 0.026-10000 nM. The final concentration of DMSO was 0.25%. After the drug-treated cell plate was cultured at 37° C. for 1 hour or 20 hours in a 5% CO2 incubator, 10 μL LPS (0111:B4) (Sigma, L4391) was added with a final concentration of 100 ng/mL. The cell plate was again placed in a 5% CO2 incubator at 37° C. for 5 hours, centrifuged at 2000 rpm for 10 minutes, and 100 μL cell supernatant was taken from each well and transferred to a new 96-well transparent cell plate for cytokine concentration test, which was frozen at −80° C. to be tested.
The concentration of IL-6 in the supernatant of LPS-induced human PBMC cells was determined using interleukin-6 (IL-6) AlphaLISA detection kit (PerkinElmer, AL223 C).
According to the product instructions, IL-6 standard solutions with different concentrations were prepared in the concentration range of […]. 2 μL of IL-6 standard solution at various concentrations and the cell supernatant sample to be tested were taken, respectively added to white 384 well plates (PerkinElmer, 6007299), then a mixed solution of 8 μL of 5× anti-IL-6 receptor beads (final concentration: 10 μg/mL) and biotin-labeled anti-IL-6 antibody (final concentration 1 nM) was added to each well, and incubated at 23° C. for 60 minutes. Finally, 10 μL of 2× streptavidin-labeled donor beads (final concentration: 40 μg/mL) were added to each well and incubated at 23° C. for 30 minutes in the absent of light. After the incubation, the AlphaLISA signal value was determined in the AlphaScreen standard setting mode on the microplate reader EnVision(PerkinElmer, 2105). The standard curve was drawn by the AlphaLISA signal value of each concentration IL-6 standard solution, and then based on the corresponding concentration on the standard curve for the AlphaLISA signal value of the sample to be tested, the IL-6 concentration of each cell lysis supernatant was determined. Compared with the IL-6 concentration of the control group, the inhibition rate of the compound at each concentration was calculated, and then IC50 value of the compound was calculated by fitting the nonlinear curve with the logarithmic concentration-inhibition rate by GraphPad Prism 7.

T1 sequence (Q13422 whole entry): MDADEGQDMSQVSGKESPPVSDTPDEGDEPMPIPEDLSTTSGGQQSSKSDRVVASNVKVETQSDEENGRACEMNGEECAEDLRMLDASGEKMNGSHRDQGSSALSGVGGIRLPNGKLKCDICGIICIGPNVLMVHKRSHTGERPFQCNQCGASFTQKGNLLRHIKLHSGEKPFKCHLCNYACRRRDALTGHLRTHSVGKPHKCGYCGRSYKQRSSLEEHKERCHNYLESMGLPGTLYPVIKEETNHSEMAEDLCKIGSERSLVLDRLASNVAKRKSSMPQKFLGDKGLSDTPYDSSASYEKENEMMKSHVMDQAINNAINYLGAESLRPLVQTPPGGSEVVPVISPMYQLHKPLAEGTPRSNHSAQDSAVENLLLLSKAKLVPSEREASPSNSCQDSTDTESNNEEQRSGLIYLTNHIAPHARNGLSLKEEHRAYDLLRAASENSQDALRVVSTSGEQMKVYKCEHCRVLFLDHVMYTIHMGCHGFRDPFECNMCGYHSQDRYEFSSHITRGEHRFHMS
T1 sequence (Q96SW2 whole entry): as the sequence (Q96SW2 whole entry) above
T1 sequence (Q16531 whole entry partner): as the sequence (Q16531 whole entry partner) above

Structure (SMILES)	IKZF1 degradation rate (IKZF1 in L363 cells)	IKZF3 degradation rate (IKZF3 in L363 cells)	IC50 [1]
COc1cc2nn(C3CCN(CC4CCN(CCOc5ccc6c(c5)C(=O)N(C5CCC(=O)NC5=O)C6=O)CC4)CC3)cc2cc1NC(=O)c1cccc(C(F)(F)F)n1 (stereo not drawn) [Control group 2, N-(2-(1-((1-(2-((2-(2,6-dioxopiperidin-3-yl)-1,3-dioxoisoindol-5-yl)oxy)ethyl)piperidin-4-yl)methyl)piperidin-4-yl)-6-methoxy-2H-indazol-5-yl)-6-(trifluoromethyl) pyridinecarboxamide, reference compound]	47.5 ± 9.7%	71.2 ± 5.7%	2050 nM
CC(C)(O)c1cc2nn(C3CCN(CC4CCC5(CC4)CCN(C(=O)c4ccc(Cl)c(N6CCC(=O)NC6=O)c4)CC5)CC3)cc2cc1NC(=O)c1cccc(C(F)(F)F)n1 [Example 31, N-(2-(1-((3-(4-chloro-3-(2,4-dioxotetrahydro-pyrimidin-1 (2H)-yl)benzoyl)-3-azaspiro [5.5]undec-9-yl)methyl)piperdin-4-yl)-6-(2-hydroxyprop-2-yl)-2H-indazol-5-yl)-6-(trifluoro-methyl) pyridinecarbox-amide]	8.4 ± 13.9%	17.8 ± 3.6%	1.8 nM
CN(CC1CCN(c2cccc3c2C(=O)N(C2CCC(=O)NC2=O)C3=O)CC1)C[C@H]1CC[C@H](n2cc3cc(NC(=O)c4cccc(C(F)(F)F)n4)c(C(C)(C)O)cc3n2)CC1 (stereo partly drawn) [Control group 3, N-(2-((1r,4r)-4-((((1-(2-(2,6-dioxopiperidin-3-yl)-1,3-dioxoisoindolin-4-yl)piperidin-4-yl)methyl) (methyl)amino)methyl)cyclohexyl)-6-(2-hydroxyprop-2-yl)-2H-indazol-5-yl)-6-(trifluoromethyl) pyridinecarboxamide, reference compound]	97.2 ± 2.6%	92.8 ± 5.0%	47.5 nM

— patent US20230234936A1, “COMPOUND FOR TARGETING AND DEGRADING PROTEIN, AND PREPARATION METHOD THEREFOR AND USE THEREOF” (SHANGHAI LEADINGTAC PHARMACEUTICAL CO., LTD., priority 2020, published 2023)
